Experimental findings from article doi:10.1101/2024.09.20.614104v2, “SATAY-Based Chemogenomic Screening uncovers Antifungal Resistance Mechanisms and Key Determinants of ATI-2307 and Chitosan Sensitivity” (biorxiv, 2024) are described below.

One assay has as its target T1, Hol1 (Saccharomyces cerevisiae, UniProt P53389).
T1 construct: full-length native plasma membrane polyamine transporter in wild-type yeast; hol1 deletion strain as control
As to the kind of experiment: LC-MS quantification of cellular uptake, wild-type versus hol1 deletion cells. In kind it is cell-based. The conditions noted are these: SC 2% ethanol, 30 °C, not an affinity constant.

Another assay addresses T2, CaHOL1 (Candida albicans, UniProt Q5AP74).
T2 construct: gene HOL1; full-length CDS PCR-amplified from genomic DNA, expressed from plasmid pBK994 in S. cerevisiae hol1 deletion strain
Kind of assay: LC-MS quantification of cellular uptake, hol1 deletion cells with or without CaHOL1 plasmid. The settings on record: 0.003 μg/mL ATI-2307, 2 h, SC -URA 2% ethanol, 30 °C. Format: cell-based.

T1 sequence (P53389 whole entry): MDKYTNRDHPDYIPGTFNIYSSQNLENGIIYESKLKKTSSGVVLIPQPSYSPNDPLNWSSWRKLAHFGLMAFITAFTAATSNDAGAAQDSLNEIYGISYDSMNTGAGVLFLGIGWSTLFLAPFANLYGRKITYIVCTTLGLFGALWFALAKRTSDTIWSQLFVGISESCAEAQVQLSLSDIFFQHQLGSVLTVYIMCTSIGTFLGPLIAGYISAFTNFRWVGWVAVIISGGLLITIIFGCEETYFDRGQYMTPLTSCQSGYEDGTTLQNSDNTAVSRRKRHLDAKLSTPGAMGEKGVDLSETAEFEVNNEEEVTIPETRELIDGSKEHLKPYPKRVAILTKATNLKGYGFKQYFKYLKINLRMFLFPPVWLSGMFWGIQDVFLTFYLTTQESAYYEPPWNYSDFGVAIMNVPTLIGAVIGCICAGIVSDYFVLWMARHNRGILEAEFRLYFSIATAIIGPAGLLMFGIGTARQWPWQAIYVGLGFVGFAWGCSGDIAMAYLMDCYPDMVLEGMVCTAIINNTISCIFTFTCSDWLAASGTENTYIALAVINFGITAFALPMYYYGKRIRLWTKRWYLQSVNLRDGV
T2 sequence (Q5AP74 entry or part of it): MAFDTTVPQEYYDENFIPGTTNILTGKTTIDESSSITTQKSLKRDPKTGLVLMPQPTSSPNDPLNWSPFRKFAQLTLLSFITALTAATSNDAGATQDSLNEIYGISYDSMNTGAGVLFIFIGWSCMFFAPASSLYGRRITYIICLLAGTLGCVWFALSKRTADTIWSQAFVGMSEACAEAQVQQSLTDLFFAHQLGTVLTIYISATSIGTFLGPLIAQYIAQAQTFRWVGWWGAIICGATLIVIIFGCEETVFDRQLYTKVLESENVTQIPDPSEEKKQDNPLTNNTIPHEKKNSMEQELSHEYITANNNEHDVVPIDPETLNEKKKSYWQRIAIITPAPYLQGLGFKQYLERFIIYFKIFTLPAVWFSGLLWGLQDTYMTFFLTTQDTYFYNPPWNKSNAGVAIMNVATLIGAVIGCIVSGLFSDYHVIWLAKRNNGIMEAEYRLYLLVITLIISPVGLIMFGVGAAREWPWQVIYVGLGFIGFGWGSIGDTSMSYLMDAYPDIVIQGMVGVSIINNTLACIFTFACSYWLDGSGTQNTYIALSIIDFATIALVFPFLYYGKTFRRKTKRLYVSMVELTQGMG

As for `N=C(N)c1ccc(OCCCC2CCN(CCCOc3ccc(C(=N)N)cc3)CC2)cc1` [ATI-2307], the “uptake, μg per gram of WT pellet” value at Hol1 (0.003 μg/mL ATI-2307, 2 h) was 0.1 μg/g pellet. Besides, the “LC-MS quantification of cellular uptake, hol1 deletion cells with or without CaH” value at CaHOL1 was “heterologous expression of C. albicans HOL1 (CaHOL1) partially restored ATI-2307 uptake”.
On to `N=C(N)NCCCCCCCCNCCCCCCCCNC(=N)N` [Iminoctadine], for which, on Hol1 (1 μg/mL Iminoctadine, 2 h), the “uptake, μg per gram of WT pellet” value is on record as 52.5 μg/g pellet.
